The numbers were not newly measured in EP4759820A1, “METHOD FOR PRODUCING PEPTIDE COMPOUND USING STAND-ALONE-TYPE CONDENSING AGENT” (CHUGAI SEIYAKU KABUSHIKI KAISHA, priority 2023, dated 2025), which cites them from elsewhere.

The conditions of the first series: conjugate acid of the base; water as solvent, 25°C; literature reference given with each value.
Consider `CN1CCOCC1` [N-methylmorpholine], for which the pKa was 7.38.

The same series, now with this note: representative additives; water as solvent, 25°C; literature reference given with each value.
Turning to `NC(=O)C(=NO)C(N)=O` [2-(Hydroxyimino)malonamide], the pKa was 9.4.
As to `N#CC(=NO)c1ccccc1` [Hydroxyimino-2-phenylacetonitrile], the pKa is 8.2.
`CCOC(=O)C(=NO)c1ccco1` [Ethyl 2-(furan-2-yl)-2-(hydroxyimino)acetate]: the pKa is 9.6.
In the case of `CCOC(=O)C(C#N)=NO` [oxyma, ethyl 2-cyano-2-(hydroxyimino)acetate], the pKa is recorded as 4.60.
Consider `O=[N+]([O-])C(CCc1ccccc1)=NO` [1-Nitro-3-phenylpropan-1-oneoxime], for which the pKa is recorded as 7.4.
As for `C[n+]1ccccc1C(=NO)c1ccccn1.[I-]` [2-((Hydroxyimino)(pyridin-2-yl)methyl)-1-methylpyridin-1-iumiodide], the pKa is listed as 5.6.
Take `NC(=NO)c1cnccn1` [N'-Hydroxypyrazine-2-carboximidamide]: the pKa is reported as 12.5.
As for `O=C1Cc2ccccc2N1O` [HOI, 1-Hydroxyindolin-2-one], the pKa is on record as 8.3.
Regarding `CC(C)(C)OC(=O)C(C#N)=NO` [tert-Butyl 2-cyano-2-(hydroxyimino)acetate], the pKa is 4.60.
As for `CCOC(=O)C(=NO)S(N)(=O)=O` [Ethyl 2-(hydroxyimino)-2-sulfamoylacetate], the pKa is on record as 5.8.
For `NC(=O)C(=NO)c1cnccn1` [2-(Hydroxyimino)-2-(pyrazin-2-yl)acetamide], the pKa is listed as 9.4.
Turning to `NC(=O)C(=NO)c1ccc[nH]1` [2-(Hydroxyimino)-2-(1H-pyrrol-2-yl)acetamide], the pKa is recorded as 9.4.
As to `CC(=NO)C(C)=NO` [Butane-2,3-dionedioxime], the pKa is reported as 12.1.
Turning to `CCOC(=O)C(=NO)c1ccccn1` [Ethyl 2-(hydroxyimino)-2-(pyridine-2-yl)acetate], the pKa is given as 9.6.
Consider `CCOC(=O)C(=NO)c1ccncc1` [Ethyl 2-(hydroxyimino)-2-(pyridine-4-yl)acetate], for which the pKa is listed as 9.6.
For `ON=C1NCCO1` [Oxazolidin-2-one oxime], the pKa was 12.5.
Regarding `CCOC(=O)C(=NO)c1ncccn1` [Ethyl 2-(hydroxyimino)-2-(pyrimidin-2-yl)acetate], the pKa is 9.6.
In the case of `O=C1C(=NO)c2ccccc2N1c1ccccc1` [3-(Hydroxyimino)-1-phenylindoline-2-one], the pKa is reported as 9.0.
Regarding `ON=C1NCCN1` [Imidazolidin-2-one oxime], the pKa is listed as 12.5.
For the compound `ON=C1c2ccccc2C(=NO)c2ccccc21` [Anthracene-9,10-dionedioxime], the pKa is listed as 7.1.
In the case of `CCOC(=O)C(=NO)c1cccs1` [Ethyl 2-(hydroxyimino)-2-(thiophen-2-yl)acetate], the pKa was 9.6.
Regarding `CCOC(=O)C(=NO)c1ccc[nH]1` [Ethyl 2-(hydroxyimino)-(1H-pyrrol-2-yl)acetate], the pKa was 9.6.
`NC(=O)C(=NO)c1cccs1` [2-(Hydroxyimino)-2-(thiophen-2-yl)acetamide]: the pKa was 9.4.
On to `CS(=O)(=O)C(=NO)C(N)=O` [2-(Hydroxyimino)-2-(methylsulfonyl)acetamide], for which the pKa is 9.4.
For the compound `CCOC(=O)C(=NO)S(=O)(=O)C(F)(F)F` [Ethyl 2-(hydroxyimino)-2-((trifluoromethyl)sulfonyl)acetate], the pKa is listed as 4.2.
With `NC(=O)C(=NO)c1ccco1` [2-(Furan-2-yl)-2-(hydroxyimino)acetamide], the pKa is reported as 9.4.
For `CC(C)OC(=O)C(=NO)C(=O)OC(C)C` [Diisopropyl 2-(hydroxyimino)malonate], the pKa is 7.2.
With `CCOC(=O)C(=NO)c1cnccn1` [Ethyl 2-(hydroxyimino)-2-(pyrazin-2-yl)acetate], the pKa was 9.4.
As for `NC(=O)C(=NO)c1nccs1` [2(Hydroxyimino)-2-(thiazol-2-yl)acetamide], the pKa is on record as 8.7.
Turning to `NC(=S)C(=NO)c1ncccn1` [2-(Hydroxyimino)-2-(pyrimidin-2-yl)ethanethioamide], the pKa is listed as 10.5.
As to `CS(=O)(=O)C(=NO)[S+](N)[O-]` (stereo not shown) [(Hydroxyimino)(methylsulfonyl)methanesulfinamide], the pKa is listed as 9.4.
With `ON=C1c2ccccc2-c2ccccc21` [9H-Fluoren-9-one oxime], the pKa is on record as 11.1.
`O=[N+]([O-])C(=NO)c1ccccc1` [Nitro(phenyl)methanone oxime]: the pKa is given as 7.6.
Consider `CCOC(=O)C(NO)C(=O)OCC` [Diethyl 2-(hydroxyamino)malonate], for which the pKa is on record as 7.2.
With `NC(=O)C(=NO)c1ncccn1` [2-(Hydroxyimino)-2-(pyrimidin-2-yl)acetamide], the pKa is recorded as 9.4.
In the case of `CN(C)[S+]([O-])C(=NO)c1ccccc1` (stereo not shown) [1-(Hydroxyimino)-N,N-dimethyl-1-phenylmethanesulfinamide], the pKa is 7.4.
For the compound `C#CC(=NO)C(N)=O` [2-(Hydroxyimino)but-3-ynamide], the pKa is 9.4.
Regarding `O=C1CCC(=O)N1O` [HOSu, 1-Hydroxypyrrolidine-2,5-dione], the pKa is given as 7.7.
As for `O=c1c2ncccc2ncn1O` [HODhad, 3-Hydroxypyrido[3,2-d]pyrimidin-4(3H)-one], the pKa was 5.8.
Regarding `ON=c1[nH]cco1` [Oxazol-2(3H)-one oxime], the pKa was 6.6.
Turning to `CN1C(=O)C(=NO)c2ccccc21` [3-(Hydroxyimino)-1-methylindolin-2-one], the pKa is given as 9.4.
As for `C#CC(=NO)C(=O)OCC` [Ethyl 2-(hydroxyimino)but-3-ynoate], the pKa is 9.6.
As for `ON=c1[nH]cc[nH]1` [1,3-Dihydro-2H-imidazol-2-one oxime], the pKa is on record as 8.2.
On to `CCOC(=O)C(NO)[N+](=O)[O-]` (stereo not shown) [Ethyl 2-(hydroxyamino)-2-nitroacetate], for which the pKa was 4.7.
`NC(=O)C(NO)C(=O)N(O)O` (stereo not shown) [N',N'-Dihydroxy-2-(hydroxyamino)malonamide]: the pKa was 7.7.
